Molecular target: T1, GLUT1 (Homo sapiens, UniProt P11166)
T1 sequence (P11166 1-492): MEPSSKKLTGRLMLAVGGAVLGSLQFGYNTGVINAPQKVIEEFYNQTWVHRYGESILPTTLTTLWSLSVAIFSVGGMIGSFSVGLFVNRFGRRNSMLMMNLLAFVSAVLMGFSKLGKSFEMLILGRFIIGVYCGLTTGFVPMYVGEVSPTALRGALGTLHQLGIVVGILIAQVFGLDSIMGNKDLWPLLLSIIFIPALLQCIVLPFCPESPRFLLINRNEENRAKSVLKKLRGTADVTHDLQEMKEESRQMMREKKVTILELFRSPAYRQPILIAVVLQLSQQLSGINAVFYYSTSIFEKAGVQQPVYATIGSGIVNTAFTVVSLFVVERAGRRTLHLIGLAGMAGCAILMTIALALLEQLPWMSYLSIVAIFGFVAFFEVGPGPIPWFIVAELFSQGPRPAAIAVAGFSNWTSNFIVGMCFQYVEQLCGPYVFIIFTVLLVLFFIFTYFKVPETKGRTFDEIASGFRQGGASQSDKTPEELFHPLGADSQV
Assay: Indirect measurement of GLUT1 activity by quantification of intracellular ATP levels (glucose induced ATP increase)
Type: cell-based
Design: endogenous in cells; host or cells: DLD1 or CHO-K1
Conditions: DLD1 cells; 0.1 mM glucose, 1 μM Rotenone, 15 min; CellTiter-Glo ATP readout; IC50 values standardized to cytochalasin B IC50 values; read-out: IC50 regarding glucose induced ATP increase (GLUT1 inhibition)
Summary of the method: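 DLD1 or CHO-K1 cells were starved overnight in glucose-free medium with 1% FCS, then combined with an oxidative phosphorylation inhibitor. GLUT1 activity was read as glucose-induced ATP increase, GLUT2 as fructose-induced. Intracellular ATP was quantified by CellTiter-Glo luminescence.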

Question: With “6-cyano N^4-[1-(4-cyanobenzyl)-5-methyl-3-(trifluoromethyl)-1H-pyrazol-4-yl]quinoline-2,4-dicarboxamide [Example 337]” as the molecule, how does the IC50 read?
Answer: 1.9 nM

Same assay, conditions: read-out: IC50 regarding glucose induced ATP increase (GLUT1 inhibition)

Question: `Cc1cc(F)ccc1Cn1nc(C(F)(F)F)c(NC(=O)c2cc(C(N)=O)nc3cccc(F)c23)c1C` [Example 1711] was tested. Which IC50 did it give?
Answer: 4.4 nM

Question: How did the IC50 turn out when `Cc1cc(F)ccc1Cn1nc(C(F)(F)F)c(NC(=O)c2cc(C(N)=O)nc3cc(F)ccc23)c1C` [Example 1710] was run?
Answer: 3.8 nM

Question: Which IC50 does the source give for `Cc1nn(C(C)CCc2ccc(F)cc2)c(C)c1NC(=O)c1cc(C(N)=O)nc2cc(F)c(Cl)cc12` (racemic) [Example 1380] here?
Answer: 3.7 nM

Question: Which IC50 does the source give for `C=Cc1ccc(Cn2nc(C)c(NC(=O)c3cc(OC)nc4ccccc34)c2C)cc1` [Example 1172] here?
Answer: 198 nM

Question: `Cc1ccc2nc(C)cc(C(=O)Nc3c(C(F)(F)F)nn(Cc4ccc(F)cc4F)c3C)c2c1` [Example 204, N-[1-(2,4-difluorobenzyl)-5-methyl-3-(trifluoromethyl)-1H-pyrazol-4-yl]-2,6-dimethylquinoline-4-carboxamide] was tested. Which IC50 did it give?
Answer: 613 nM

Question: `Cc1nn(Cc2ccc(F)c(F)c2)c(C)c1NC(=O)c1cc(C(F)(F)F)nc2c(Cl)cc(Cl)cc12` [Example 35, 6,8-dichloro-N-[1-(3,4-difluorobenzyl)-3,5-dimethyl-1H-pyrazol-4-yl]-2-(trifluoromethyl)quinoline-4-carboxamide] was tested. Which IC50 did it give?
Answer: 25.6 nM

Question: `Cc1c(NC(=O)c2cc(C(N)=O)nc3ccccc23)c(C(F)(F)F)nn1CCc1ccc(F)cc1` [Example 1371] was tested. Which IC50 did it give?
Answer: 144 nM

Question: How did the IC50 turn out when `Cc1c(NC(=O)c2cc(C(N)=O)nc3ccccc23)c(C(F)(F)F)nn1Cc1ccncc1C#N` [Example 288, N^4-{1-[(3-cyanopyridin-4-yl)methyl]-5-methyl-3-(trifluoromethyl)-1H-pyrazol-4-yl}quinoline-2,4-dicarboxamide] was run?
Answer: 40.1 nM

Question: `Cc1c(NC(=O)c2cc(C(N)=O)nc3c(F)cc(Cl)cc23)c(C(F)(F)F)nn1Cc1ccc(C#N)cc1` [Example 241, 6-chloro-N^4-[1-(4-cyanobenzyl)-5-methyl-3-(trifluoromethyl)-1H-pyrazol-4-yl]-8-fluoroquinoline-2,4-dicarboxamide] was tested. Which IC50 did it give?
Answer: 1.1 nM

Question: For `Cc1nn(Cc2ccc(C(=O)N3CCN(C)CC3)cc2)c(C)c1NC(=O)c1cc(C(F)(F)F)nc2ccc(Br)cc12` [Example 1212], which IC50 is on record?
Answer: 598 nM

Question: Which IC50 does the source give for `Cc1c(NC(=O)c2cc(C(F)(F)F)nc3ccc(Br)cc23)c(C(F)(F)F)nn1Cc1ccncc1` [Example 1365] here?
Answer: 167 nM

Question: For `Cc1nn(Cc2ccc(C#N)cn2)c(C)c1NC(=O)c1cc(C(F)(F)F)nc2ccc(Br)cc12` [Example 353, 6-bromo-N-{1-[(5-cyanopyridin-2-yl)methyl]-3,5-dimethyl-1H-pyrazol-4-yl}-2-(trifluoromethyl)quinoline-4-carboxamide], which IC50 is on record?
Answer: 2.3 nM

Question: `Cc1nn(Cc2ccc(F)cc2)c(C)c1NC(=O)c1cc(C(F)(F)F)nc2ccc(F)cc12` [Example 30, 6-fluoro-N-[1-(4-fluorobenzyl)-3,5-dimethyl-1H-pyrazol-4-yl]-2-(trifluoromethyl)quinoline-4-carboxamide] was tested. Which IC50 did it give?
Answer: 19.5 nM

Question: With `Cc1nn(CC2CNC(=O)O2)c(C)c1NC(=O)c1cc(C(N)=O)nc2ccccc12` (centres unmarked) [Example 1347] as the molecule, how does the IC50 read?
Answer: 3950 nM

Question: How did the IC50 turn out when `Cc1ccc(CNC(=O)c2ccc(Cn3nc(C)c(NC(=O)c4cc(C(F)(F)F)nc5ccc(Br)cc45)c3C)cc2)cc1` [Example 1108] was run?
Answer: 52.5 nM

Question: Which IC50 does the source give for `Cc1c(NC(=O)c2cc(C(N)=O)nc3cc(F)ccc23)c(C(F)(F)F)nn1Cc1ccc(-c2nnn[nH]2)cc1` [Example 400, 7-fluoro-N^4-{5-methyl-1-[4-(1H-tetrazol-5-yl)benzyl]-3-(trifluoromethyl)-1H-pyrazol-4-yl}quinoline-2,4-dicarboxamide] here?
Answer: 1260 nM

Question: For `Cc1c(NC(=O)c2cc(C(N)=O)nc3cccc(F)c23)c(C(F)(F)F)nn1Cc1ccc(C#N)cc1F` [Example 306, N^4-[1-(4-cyano-2-fluorobenzyl)-5-methyl-3-(trifluoromethyl)-1H-pyrazol-4-yl]-5-fluoroquinoline-2,4-dicarboxamide], which IC50 is on record?
Answer: 4.7 nM

Question: Which IC50 does the source give for `Cc1nn(CC2CCOCC2)c(C)c1NC(=O)c1cc(C(F)(F)F)nc2c(Cl)cc(Cl)cc12` [Example 1143] here?
Answer: 114 nM

Question: With `Cc1nn(Cc2cccc(OC(F)(F)F)c2)c(C)c1NC(=O)c1cc(C(N)=O)nc2cccc(F)c12` [Example 1587] as the molecule, how does the IC50 read?
Answer: 41.8 nM

Question: With `CCc1ccc(Cn2nc(C(F)(F)F)c(NC(=O)c3cc(C(N)=O)nc4ccccc34)c2C)cc1` [Example 1413] as the molecule, how does the IC50 read?
Answer: 1.1 nM

Question: `Cc1nn(CC2CCN(S(=O)(=O)CCCC#N)CC2)c(C)c1NC(=O)c1cc(C(N)=O)nc2ccccc12` [Example 1512] was tested. Which IC50 did it give?
Answer: 105 nM

Question: For `Cc1c(NC(=O)c2cc(C(F)(F)F)nc3c(Cl)cc(Cl)cc23)c(C(F)(F)F)nn1Cc1ccc(F)cc1` [Example 38, 6,8-dichloro-N-[1-(4-fluorobenzyl)-5-methyl-3-(trifluoromethyl)-1H-pyrazol-4-yl]-2-(trifluoromethyl)quinoline-4-carboxamide], which IC50 is on record?
Answer: 29.5 nM

Question: With `Cc1nn(Cc2ccc(C#N)cc2)c(C)c1NC(=O)c1cc(C(N)=O)nc2ccc(F)cc12` [Example 228, N^4-[1-(4-cyanobenzyl)-3,5-dimethyl-1H-pyrazol-4-yl]-6-fluoroquinoline-2,4-dicarboxamide] as the molecule, how does the IC50 read?
Answer: 4.6 nM

Question: `Cc1nn(Cc2ccc(C(=O)NCc3cccc(F)c3)cc2)c(C)c1NC(=O)c1cc(C(F)(F)F)nc2ccc(Br)cc12` [Example 1163] was tested. Which IC50 did it give?
Answer: 166 nM

Question: With `Cc1c(NC(=O)c2cc(C(N)=O)nc3ccccc23)c(C(C)C)nn1Cc1ccc(C#N)cc1` [Example 322, N^4-[1-(4-cyanobenzyl)-3-isopropyl-5-methyl-1H-pyrazol-4-yl]quinoline-2,4-dicarboxamide] as the molecule, how does the IC50 read?
Answer: 1.9 nM

Question: With `Cc1nn(Cc2ccc(CC#N)cc2)c(C)c1NC(=O)c1cc(C(N)=O)nc2ccccc12` [Example 1614] as the molecule, how does the IC50 read?
Answer: 0.8 nM

Question: How did the IC50 turn out when `Cc1c(NC(=O)c2cc(C(N)=O)nc3ccccc23)c(C(F)(F)F)nn1Cc1ccc(C(C)C)cc1` [Example 1407] was run?
Answer: 28.7 nM

Question: For `Cc1cc(Cn2nc(C)c(NC(=O)c3cc(C(N)=O)nc4cc(F)c(Cl)cc34)c2C)no1` [Example 412, 6-chloro-N^4-{3,5-dimethyl-1-[(5-methyl-1,2-oxazol-3-yl)methyl]-1H-pyrazol-4-yl}-7-fluoroquinoline-2,4-dicarboxamide], which IC50 is on record?
Answer: 2.1 nM

Question: Which IC50 does the source give for `Cc1c(NC(=O)c2cc(C(N)=O)nc3cc(F)ccc23)c(C(F)(F)F)nn1Cc1ccc(C(N)=O)cc1` [Example 369, N^4-[1-(4-carbamoylbenzyl)-5-methyl-3-(trifluoromethyl)-1H-pyrazol-4-yl]-7-fluoroquinoline-2,4-dicarboxamide] here?
Answer: 12.4 nM

Question: Which IC50 does the source give for `Cc1cc(C(=O)Nc2c(C)nn(Cc3ccc(F)cc3)c2C)c2ccc(Br)cc2n1` [Example 1277] here?
Answer: 3850 nM

Question: Which IC50 does the source give for `Cc1nn(Cc2cc(F)ccc2F)c(C)c1NC(=O)c1cc(C(F)(F)F)nc2ccc(Br)cc12` [Example 1238] here?
Answer: 1370 nM

Question: For `Cc1c(NC(=O)c2cc(C(N)=O)nc3cc(F)c(Cl)cc23)c(C#N)nn1Cc1ccc(F)cc1` [Example 307, 6-chloro-N^4-[3-cyano-1-(4-fluorobenzyl)-5-methyl-1H-pyrazol-4-yl]-7-fluoroquinoline-2,4-dicarboxamide], which IC50 is on record?
Answer: 5.1 nM

Question: `Cc1ccc2nc(C)cc(C(=O)Nc3c(C)nn(Cc4ccccc4C#N)c3C)c2c1` [Example 114, N-[1-(2-cyanobenzyl)-3,5-dimethyl-1H-pyrazol-4-yl]-2,6-dimethylquinoline-4-carboxamide] was tested. Which IC50 did it give?
Answer: 833 nM

Question: How did the IC50 turn out when `COc1ccc(Cn2nc(C)c(NC(=O)c3cc(C(F)(F)F)nc4c(Cl)cc(Cl)cc34)c2C)cc1` [Example 8, 6,8-dichloro-N-[1-(4-methoxybenzyl)-3,5-dimethyl-1H-pyrazol-4-yl]-2-(trifluoromethyl)quinoline-4-carboxamide] was run?
Answer: 5.4 nM

Question: With `Cc1nn(Cc2ccc(C#N)cc2F)c(C)c1NC(=O)c1cc(C(N)=O)nc2ccccc12` [Example 297, N^4-[1-(4-cyano-2-fluorobenzyl)-3,5-dimethyl-1H-pyrazol-4-yl]quinoline-2,4-dicarboxamide] as the molecule, how does the IC50 read?
Answer: 0.8 nM

Question: How did the IC50 turn out when `Cc1c(NC(=O)c2cc(C(N)=O)nc3cc(F)c(Cl)cc23)c(C(F)(F)F)nn1Cc1ccc(F)cc1C#N` [Example 1657] was run?
Answer: 3.4 nM

Question: Which IC50 does the source give for `CNC(=O)c1ccc(Cn2nc(C)c(NC(=O)c3cc(C(N)=O)nc4cc(F)ccc34)c2C)cc1` [Example 1425] here?
Answer: 56.3 nM

Question: `Cc1cc(C(=O)Nc2c(C)nn(Cc3ccc(F)cc3)c2C)c2cccc(C)c2n1` [Example 86, N-[1-(4-fluorobenzyl)-3,5-dimethyl-1H-pyrazol-4-yl]-2,8-dimethylquinoline-4-carboxamide] was tested. Which IC50 did it give?
Answer: 257 nM

Question: For `Cc1ccc2nc(C)cc(C(=O)Nc3c(C)nn(Cc4ncccc4C)c3C)c2c1` [Example 1285], which IC50 is on record?
Answer: 6250 nM

Question: With `COc1cc(C(=O)Nc2c(C)nn(Cc3cccc(C(F)(F)F)c3)c2C)c2ccccc2n1` [Example 1303] as the molecule, how does the IC50 read?
Answer: 11100 nM

Question: For `Cc1nn(Cc2ccc(C(=O)O)cc2)c(C)c1NC(=O)c1cc(C(N)=O)nc2cc(F)ccc12` [Example 1423], which IC50 is on record?
Answer: 29.6 nM

Question: Which IC50 does the source give for `Cc1nn(Cc2ccc(F)cc2)c(C)c1NC(=O)c1cc(C(F)(F)F)nc2c(C#N)cccc12` [Example 1268] here?
Answer: 2850 nM

Question: With `Cc1ccc2nc(C)cc(C(=O)Nc3c(C)nn(Cc4ccccc4C(F)(F)F)c3C)c2c1` [Example 1298] as the molecule, how does the IC50 read?
Answer: 11100 nM

Source: US20170037028A1 (BAYER PHARMA AKTIENGESELLSCHAFT, priority 2013, published 2017)
